Literature values in patent US7935500B2, “Identifying calcineurin activators for treatment of schizophrenia” (Massachusetts Institute of Technology, priority 2002, dated 2011).

What was measured:
IP3 receptors [1] = settings: literature studies [29], [30]
IP3 receptors [2] = settings: literature studies [29], [30]; remark: listed apart in the source
ryanodine receptor [3] = settings: literature study [28]
ryanodine receptor [4] = settings: literature study [28]; remark: listed apart in the source

SMILES | effect on binding of [3H]-IP3 to membranes (IP3 receptors [1]) | effect on calcium influx (IP3 receptors [2]) | effect on binding of [3H]-ryanodine to membranes (ryanodine receptor [3]) | effect on probability of the channel being open (calcium influx) (ryanodine receptor [4])
CCN(CC)CCCC(C)Nc1ccnc2cc(Cl)ccc12 (stereo not shown) [chloroquine] | decrease binding of [3H]-IP3 to membranes | decrease calcium influx | – | –
Cc1ccc(C(=O)Nc2ccc(S(=O)(=O)O)c3cc(S(=O)(=O)O)cc(S(=O)(=O)O)c23)cc1NC(=O)c1cccc(NC(=O)Nc2cccc(C(=O)Nc3cc(C(=O)Nc4ccc(S(=O)(=O)O)c5cc(S(=O)(=O)O)cc(S(=O)(=O)O)c45)ccc3C)c2)c1 [suramin] | – | – | increase binding of [3H]-ryanodine to membranes | increase the probability of the channel being open
